Values quoted from earlier work, collected in patent US12678402B2 (Nasus Pharma Ltd., priority 2020, dated 2026).
Like-named read-outs stand apart in the source and are kept apart here.

Experiments:
[1] = tested on: nasal epithelia; conditions: in vitro; dissolves in nasal fluid
[2] = IN 1 mg up to 12 mg, different indications and formulations

For `CNC[C@H](O)c1ccc(O)c(O)c1` [Epinephrine], the “Cbaseline Mean (±SD)” value (0.3 mg IM) is given as 35 ± 23 pg/mL, the Tmax (0.3 mg IM) is given as 1.12 ± 0.717 h and the “Cbaseline Mean (±SD)” value (5 mg IN) is given as 8 ± 6 pg/mL. For the same compound, the adverse events observed (IN epinephrine in saline formulation, healthy adults) was “transient tremor was observed in one subject and palpitation in two subjects”, the “heart rate and blood pressure changes” value (IN epinephrine in saline formulation, healthy adults, at Tmax) was “Increase in heart rate, and diastolic and systolic blood pressures occurred at Tmax. in most subjects” and the serious adverse effects (after IN epinephrine administration, healthy adults) was “No serious adverse effects were observed”. For the same compound, the “absorption after deposition of the powder in the nasal cavity” value [1] was “rapidly absorbed through the nasal epithelia” and the serious adverse events [2] was “no serious adverse events”.
